For assay [1], the target named is Human α2δ-1 subunit of Cav2.2 calcium channel (Homo sapiens, UniProt P54289). Briefly: Human α2δ-1 subunit of Cav2.2 calcium channel assay ([3H]-gabapentin binding). Conditions: binding to the α2δ-1 subunit of voltage-gated calcium channels expressed as Ki; + also covers inhibition between 1% and 50%. An outline of the steps:
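Membranes enriched in human α2δ-1 incubated with 15 nM [3H]-gabapentin in 10 mM Hepes-KOH pH 7.4, 60 min at 27 °C; nonspecific binding defined with 10 μM pregabalin. Filtration and scintillation counting; % inhibition at 1 or 10 μM, or Ki from five concentrations.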

Assay [2] concerns the target T1, Human σ1 receptor (Homo sapiens, UniProt Q99720).
T1 construct: expressed in transfected cells; host or cells: HEK-293
The experiment in a line: Human σ1 receptor radioligand assay ([3H](+)-pentazocine binding, transfected HEK-293 membranes). The following applies: binding to σ1 receptor expressed as Ki; + also covers inhibition between 1% and 50%; read-out: σ-1 binding. The method, boiled down:
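Membranes (7 μg) were incubated with 5 nM [3H](+)-pentazocine in 50 mM Tris-HCl pH 8 for 120 min at 37° C. Non-specific binding was defined with 10 μM haloperidol. Values are % inhibition at 1 or 10 μM or Ki from five concentrations, read by filtration and scintillation counting.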

SMILES strings stand for the structures. Some results are limits rather than exact numbers.

T1 sequence (Q99720 whole entry): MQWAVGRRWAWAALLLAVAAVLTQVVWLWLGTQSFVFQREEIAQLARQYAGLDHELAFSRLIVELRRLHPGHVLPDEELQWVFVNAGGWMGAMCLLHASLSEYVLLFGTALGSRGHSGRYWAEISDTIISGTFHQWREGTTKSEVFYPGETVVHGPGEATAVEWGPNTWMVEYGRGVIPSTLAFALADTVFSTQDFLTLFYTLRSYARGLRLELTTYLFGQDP
Human α2δ-1 subunit of Cav2.2 calcium channel, sequence (P54289 25-1103): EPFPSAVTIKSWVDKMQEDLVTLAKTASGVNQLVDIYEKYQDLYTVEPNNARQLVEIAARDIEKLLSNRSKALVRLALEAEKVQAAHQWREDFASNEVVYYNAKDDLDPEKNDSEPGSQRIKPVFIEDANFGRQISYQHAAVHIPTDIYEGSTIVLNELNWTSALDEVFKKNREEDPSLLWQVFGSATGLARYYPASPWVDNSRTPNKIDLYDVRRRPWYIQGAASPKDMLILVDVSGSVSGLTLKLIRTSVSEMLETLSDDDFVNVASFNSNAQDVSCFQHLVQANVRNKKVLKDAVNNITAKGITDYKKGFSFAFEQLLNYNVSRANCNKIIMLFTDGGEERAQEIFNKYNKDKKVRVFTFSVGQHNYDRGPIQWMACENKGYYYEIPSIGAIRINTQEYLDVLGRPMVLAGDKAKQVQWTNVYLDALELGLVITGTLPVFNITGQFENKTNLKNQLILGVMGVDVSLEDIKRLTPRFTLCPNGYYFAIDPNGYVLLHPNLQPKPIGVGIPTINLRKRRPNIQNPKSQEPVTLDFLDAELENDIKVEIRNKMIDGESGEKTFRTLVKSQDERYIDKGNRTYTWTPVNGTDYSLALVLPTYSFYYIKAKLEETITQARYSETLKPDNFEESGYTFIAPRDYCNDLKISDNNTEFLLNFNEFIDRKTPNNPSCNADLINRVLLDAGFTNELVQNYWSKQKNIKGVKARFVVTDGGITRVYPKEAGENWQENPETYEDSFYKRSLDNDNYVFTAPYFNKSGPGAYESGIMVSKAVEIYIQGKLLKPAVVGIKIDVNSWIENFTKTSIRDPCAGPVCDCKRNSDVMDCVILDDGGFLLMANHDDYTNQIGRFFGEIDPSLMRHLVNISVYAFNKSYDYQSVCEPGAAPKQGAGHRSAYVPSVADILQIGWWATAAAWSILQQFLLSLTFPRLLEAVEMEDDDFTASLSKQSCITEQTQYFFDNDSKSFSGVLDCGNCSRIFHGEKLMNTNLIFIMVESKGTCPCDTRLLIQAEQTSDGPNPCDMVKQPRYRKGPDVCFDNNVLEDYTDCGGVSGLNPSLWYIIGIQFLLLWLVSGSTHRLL

In the case of `Clc1ccc(CN2CCCC(c3ccnc4c(CNCC5CCOCC5)c(C5CC5)nn34)C2)cc1` (stereo not shown) [Example 188, 1-(7-(1-(4-Chlorobenzyl)piperidin-3-yl)-2-cyclopropylpyrazolo[1,5-a]pyrimidin-3-yl)-N-((tetrahydro-2H-pyran-4-yl)methyl)methanamine], the Ki in assay [1] and in assay [2] was under 500 nM each time.
Take `Cc1nn2c([C@@H]3CCCN(Cc4ccc(Cl)cc4)C3)ccnc2c1CN[C@H](C)C1CCOCC1` (racemic) [Example 224, (+/−)-(R/S)—N-((7-((R/S)-1-(4-Chlorobenzyl)piperidin-3-yl)-2-methylpyrazolo[1,5-a]pyrimidin-3-yl)methyl)-1-(tetrahydro-2H-pyran-4-yl)ethan-1-amine]: the Ki is 500 to 5000 nM in assay [1] and under 500 nM in assay [2].
The like results for `CNCc1cc2nccc(C3CCCN(Cc4ccccc4)C3)n2n1` (stereo not shown) [Example 93, 1-(7-(1-Benzylpiperidin-3-yl)pyrazolo[1,5-a]pyrimidin-2-yl)-N-methylmethanamine] were, in that order, 500 to 5000 nM and over 1000 nM.
The like results for `Cc1nn2c(C3CCCN(Cc4ccccc4)C3)ccnc2c1CNCC1C[C@@H](C)O[C@@H](C)C1` (stereo partly drawn) [Example 220, 1-(7-(1-Benzylpiperidin-3-yl)-2-methylpyrazolo[1,5-a]pyrimidin-3-yl)-N-(((2R,6S)-2,6-dimethyltetrahydro-2H-pyran-4-yl)methyl)methanamine] were, in that order, 500 to 5000 nM and 500 to 1000 nM.
`Clc1nn2c([C@H]3CCCN(Cc4ccccc4)C3)ccnc2c1CNCC1CCOCC1` [Example 214]: the Ki in assay [1] was 500 to 5000 nM; in assay [2], under 500 nM.
`Cc1nn2c(C3CCCN(Cc4ccc(Cl)cc4)C3)ccnc2c1CN1CCS(=O)(=O)CC1` (stereo not shown) [Example 168, 4-((7-(1-(4-Chlorobenzyl)piperidin-3-yl)-2-methylpyrazolo[1,5-a]pyrimidin-3-yl)methyl)thiomorpholine 1,1-dioxide]: the Ki fell in the range of 500 to 5000 nM in assay [1] and 500 to 1000 nM in assay [2].
For `CNCc1c(C)nn2c([C@@H]3CCCN(Cc4ccc(Cl)cc4)C3)ccnc12` [Example 212, (R)-1-(7-(1-(4-Chlorobenzyl)piperidin-3-yl)-2-methylpyrazolo[1,5-a]pyrimidin-3-yl)-N-methylmethanamine], the Ki in assay [1] was over 5000 nM; in assay [2], under 500 nM.
For `Cc1nn2c(C3CCCN(Cc4ccc(Cl)cc4)C3)ccnc2c1CNCCC(C)C` (stereo not shown) [Example 161, N-((7-(1-(4-Chlorobenzyl)piperidin-3-yl)-2-methylpyrazolo[1,5-a]pyrimidin-3-yl)methyl)-3-methylbutan-1-amine], the Ki in assay [1] is 500 to 5000 nM; in assay [2], under 500 nM.
For `Cc1nn2c(C3CCCN(Cc4ccc(Cl)cc4)C3)ccnc2c1CN1CCC(C#N)CC1` (stereo not shown) [Example 172, 1-((7-(1-(4-Chlorobenzyl)piperidin-3-yl)-2-methylpyrazolo[1,5-a]pyrimidin-3-yl)methyl)piperidine-4-carbonitrile], in that order: over 5000 nM and under 500 nM.
Regarding `c1ccc(CN2CCCC(c3ccnc4cc(-c5cnsc5)nn34)C2)cc1` (stereo not shown) [Example 20, 4-(7-(1-Benzylpiperidin-3-yl)pyrazolo[1,5-a]pyrimidin-2-yl)isothiazole], the Ki in assay [1] was 500 to 5000 nM; in assay [2], over 1000 nM.
For `COc1ccc(-c2cc3nccc(C4CCCN(Cc5ccccc5)C4)n3n2)cn1` (stereo not shown) [Example 28, 7-(1-Benzylpiperidin-3-yl)-2-(6-methoxypyridin-3-yl)pyrazolo[1,5-a]pyrimidine], in that order: 500 to 5000 nM and over 1000 nM.
For the compound `Cc1nc(-c2cccc(-c3c(C)nn4c(C5CCCN(Cc6ccccc6)C5)ccnc34)c2)no1` (stereo not shown) [Example 55, 3-(3-(7-(1-Benzylpiperidin-3-yl)-2-methylpyrazolo[1,5-a]pyrimidin-3-yl)phenyl)-5-methyl-1,2,4-oxadiazole], the figures for the Ki in assay [1] and in assay [2] were 500 to 5000 nM and over 1000 nM, respectively.
Take `Cc1nn2c([C@H]3CCCN([C@@H](CO)c4ccccc4)C3)ccnc2c1-c1ccncc1` [Example 108, (R)-2-((S)-3-(2-methyl-3-(pyridin-4-yl)pyrazolo[1,5-a]pyrimidin-7-yl)piperidin-1-yl)-2-phenylethanol]: the Ki in assay [1] is over 5000 nM; in assay [2], over 1000 nM.
Consider `Cc1nn2c(C3CCCN(Cc4ccc(Cl)cc4)C3)ccnc2c1CNCc1cccs1` (stereo not shown) [Example 149, 1-(7-(1-(4-Chlorobenzyl)piperidin-3-yl)-2-methylpyrazolo[1,5-a]pyrimidin-3-yl)-N-(thiophen-2-ylmethyl)methanamine], for which the figures for the Ki in assay [1] and in assay [2] were 500 to 5000 nM and under 500 nM, respectively.
Consider `Cc1nn2c(C3CCCN(Cc4ccc(Cl)cc4)C3)ccnc2c1CNCCN1CCOCC1` (stereo not shown) [Example 166, N-((7-(1-(4-Chlorobenzyl)piperidin-3-yl)-2-methylpyrazolo[1,5-a]pyrimidin-3-yl)methyl)-2-morpholinoethan-1-amine], for which the Ki is 500 to 5000 nM in assay [1] and under 500 nM in assay [2].
For `Fc1ccccc1-c1cc2nccc(C3CCCN(Cc4ccccc4)C3)n2n1` (stereo not shown) [Example 14, 7-(1-Benzylpiperidin-3-yl)-2-(2-fluorophenyl)pyrazolo[1,5-a]pyrimidine], the Ki lay within 500 to 5000 nM in assay [1] and 500 to 1000 nM in assay [2].
Regarding `COc1ncccc1-c1cc2nccc(C3CCCN(Cc4ccc(Cl)cc4)C3)n2n1` (stereo not shown) [Example 114, 7-(1-(4-Chlorobenzyl)piperidin-3-yl)-2-(2-methoxypyridin-3-yl)pyrazolo[1,5-a]pyrimidine], the Ki is over 5000 nM in assay [1] and over 1000 nM in assay [2].
As for `CCOc1ccc(-c2cc3nccc(C4CCCN(Cc5ccccc5)C4)n3n2)cc1` (stereo not shown) [Example 13, 7-(1-Benzylpiperidin-3-yl)-2-(4-ethoxyphenyl)pyrazolo[1,5-a]pyrimidine], the Ki in assay [1] was over 5000 nM; in assay [2], over 1000 nM.
Regarding `c1ccc(CN2CCCC(c3ccnc4ccnn34)C2)cc1` (stereo not shown) [Example 2, 7-(1-Benzylpiperidin-3-yl)pyrazolo[1,5-a]pyrimidine], the Ki in assay [1] was 500 to 5000 nM; in assay [2] it was over 1000 nM.
For `Cc1nn2c(C3CCCN(Cc4ccc(Cl)cc4)C3)ccnc2c1CNCc1ccccc1` (stereo not shown) [Example 144, N-Benzyl-1-(7-(1-(4-chlorobenzyl)piperidin-3-yl)-2-methylpyrazolo[1,5-a]pyrimidin-3-yl)methanamine], in that order: 500 to 5000 nM and under 500 nM.
Regarding `Cc1nn2c(C3CCCN(Cc4ccc(Cl)cc4)C3)ccnc2c1CN(C)Cc1ccccc1` (stereo not shown) [Example 145, N-Benzyl-1-(7-(1-(4-chlorobenzyl)piperidin-3-yl)-2-methylpyrazolo[1,5-a]pyrimidin-3-yl)-N-methylmethanamine], the values for the Ki in assay [1] and in assay [2] were 500 to 5000 nM and under 500 nM, respectively.
As for `Cc1cnc2c(Br)cnn2c1C1CCCN(Cc2ccccc2)C1` (stereo not shown) [Example 7, 7-(1-Benzylpiperidin-3-yl)-3-bromo-6-methylpyrazolo[1,5-a]pyrimidine], the Ki in assay [1] was over 5000 nM; in assay [2] it was over 1000 nM.
Regarding `COc1ccc(CN2CCCC(c3ccnc4c(CNCC5CCOCC5)c(C)nn34)C2)cc1` (stereo not shown) [Example 242, 1-(7-(1-(4-Methoxybenzyl)piperidin-3-yl)-2-methylpyrazolo[1,5-a]pyrimidin-3-yl)-N-((tetrahydro-2H-pyran-4-yl)methyl)methanamine], the figures for the Ki in assay [1] and in assay [2] were over 5000 nM and under 500 nM, respectively.

(Values after patent US12617797B2, “Substituted pyrazolo [1,5-a]pyrimidines having multimodal activity against pain” (ESTEVE PHARMACEUTICALS, S.A., priority 2020, dated 2026).)
